Data taken from patent publication US10927118B2, “Inhibitors of influenza virus replication and uses thereof” (SUNSHINE LAKE PHARMA CO., LTD., priority 2017, dated 2021).

Legend:
in vivo = settings: SD, rat
Procedure: Pharmacokinetic characteristics of the compounds of the invention in SD rats were evaluated. The compounds disclosed herein were administered in form of a saline solution containing 5% DMSO, 5% Kolliphor HS 15 and 90% Saline. For intravenous administration (iv), the animals were administered with a dose of 1 mg/kg, and blood samples (0.3 mL) were collected at the time points of 0.083, 0.25, 0.5, 1.0, 2.0, 5.0, 7.0 and 24 h after drug administration, then each blood sample was processed to separate plasma by centrifugation at 3000 rpm or 4000 rpm for 10 minutes. For oral administration (po), the animals were administered with a dose of 5 mg/kg, and blood samples (0.3 mL) were collected at the time points of 0.25, 0.5, 1.0, 2.0, 5.0, 7.0 and 24 h after drug administration, then each blood sample was processed to separate plasma by centrifugation at 3000 rpm or 4000 rpm for 10 minutes. Plasma samples were collected and stored at −20° C. or −70° C. until LC/MS/MS analysis.

virus H1N1 A/Weiss/43 = assay: microbe, parasite or virus in culture; format: cell-based; settings: 120 h; inhibition of CPE of influenza virus A/Weiss/43(H1N1) in MDCK cells, 5 days, CCK-8

Compound | EC50 (virus H1N1 A/Weiss/43) | further results
O=C(O)C1C2CCC(CC2)C1Nc1cc(-c2ccco2)nc(-c2c[nH]c3ncncc23)n1 (racemic) [Example 2, (+/−)-trans-3-((6-(furan-2-yl)-2-(7H-pyrrolo[2,3-d]pyrimidin-5-yl)pyrimidin-4-yl)amino)bicyclo[2.2.2]octane-2-carboxylic acid] | 5.19 nM | AUC(0-inf) (in vivo; iv, 1 mg/kg): 4020 ng·h/mL; AUC(0-t) (in vivo; iv, 1 mg/kg): 3190 ng·h/mL; clearance (in vivo; iv, 1 mg/kg): 10.7 mL/min/kg; AUC(0-inf) (in vivo; po, 5 mg/kg): 12900 ng·h/mL; AUC(0-t) (in vivo; po, 5 mg/kg): 12700 ng·h/mL
Cn1ccc2c(NC3C4CCC(CC4)C3C(=O)O)nc(-c3c[nH]c4ncncc34)nc21 (racemic) [Example 3, (+/−)-trans-3-((7-methyl-7H,7′H-[2,5′-bipyrrolo[2,3-d]pyrimidin]-4-yl)amino)bicyclo[2.2.2]octane-2-carboxylic acid] | 9.41 nM | AUC(0-inf) (in vivo; iv, 1 mg/kg): 4320 ng·h/mL; AUC(0-t) (in vivo; iv, 1 mg/kg): 4280 ng·h/mL; clearance (in vivo; iv, 1 mg/kg): 9.8 mL/min/kg; AUC(0-inf) (in vivo; po, 5 mg/kg): 15700 ng·h/mL; AUC(0-t) (in vivo; po, 5 mg/kg): 15600 ng·h/mL
CC(C)n1ccc2c(NC3C4CCC(CC4)C3C(=O)O)nc(-c3c[nH]c4ncncc34)nc21 (racemic) [Example 4, (+/−)-trans-3-((7-isopropyl-7H,7′H-[2,5′-bipyrrolo[2,3-d]pyrimidin]-4-yl)amino) bicyclo[2.2.2]octane-2-carboxylic acid] | 6.56 nM | 
O=C(O)C1C2CCC(CC2)C1Nc1nc(-c2c[nH]c3ncncc23)nc(-c2ccco2)c1F (racemic) [Example 7, (+/−)-trans-3-((5-fluoro-6-(furan-2-yl)-2-(7H-pyrrolo[2,3-d]pyrimidin-5-yl)pyrimidin-4-yl)amino)bicyclo[2.2.2]octane-2-carboxylic acid] | 4.02 nM | 
O=C(O)C1C2CCC(CC2)C1Nc1cc(-c2ccoc2)nc(-c2c[nH]c3ncncc23)n1 (racemic) [Example 9, (+/−)-trans-3-((6-(furan-3-yl)-2-(7H-pyrrolo[2,3-d]pyrimidin-5-yl)pyrimidin-4-yl)amino)bicyclo[2.2.2]octane-2-carboxylic acid] | 9.57 nM | 
O=C(O)C1C2CCC(CC2)C1Nc1cc(-c2cc3ccccc3o2)nc(-c2c[nH]c3ncncc23)n1 (racemic) [Example 11, (+/−)-trans-3-((6-(benzofuran-2-yl)-2-(7H-pyrrolo[2,3-d]pyrimidin-5-yl)pyrimidin-4-yl)amino)bicyclo[2.2.2]octane-2-carboxylic acid] | 14.4 nM | 
O=C(O)C1C2CCC(CC2)C1Nc1cc(C#Cc2ccccc2)nc(-c2c[nH]c3ncncc23)n1 (racemic) [Example 12, (+/−)-trans-3-((6-(phenylethynyl)-2-(7H-pyrrolo[2,3-d]pyrimidin-5-yl)pyrimidin-4-yl)amino)bicyclo[2.2.2]octane-2-carboxylic acid] | 7.24 nM | 
O=C(O)C1C2CCC(CC2)C1Nc1nc(-c2c[nH]c3ncncc23)nc(-c2ccccc2)c1F (racemic) [Example 13, (+/−)-trans-3-((5-fluoro-6-phenyl-2-(7H-pyrrolo[2,3-d]pyrimidin-5-yl)pyrimidin-4-yl)amino)bicyclo[2.2.2]octane-2-carboxylic acid] | 8.68 nM | 
Cn1cc(-c2cc(NC3C4CCC(CC4)C3C(=O)O)nc(-c3c[nH]c4ncncc34)n2)cn1 (racemic) [Example 14, (+/−)-trans-3-((6-(1-methyl-1H-pyrazol-4-yl)-2-(7H-pyrrolo[2,3-d]pyrimidin-5-yl)pyrimidin-4-yl)amino)bicyclo[2.2.2]octane-2-carboxylic acid] | 6.32 nM | 
O=C(O)C1C2CCC(CC2)C1Nc1nc(-c2c[nH]c3ncncc23)nc2ccccc12 (racemic) [Example 18, (+/−)-trans-3-((2-(7H-pyrrolo[2,3-d]pyrimidin-5-yl)quinazolin-4-yl)amino) bicyclo[2.2.2]octane-2-carboxylic acid] | 17.5 nM | 
O=C(O)C1C2CCC(CC2)C1Nc1nc(-c2c[nH]c3ncncc23)nc2sccc12 (racemic) [Example 20, (+/−)-trans-3-((2-(7H-pyrrolo[2,3-d]pyrimidin-5-yl)thieno[2,3-d]pyrimidin-4-yl)amino)bicyclo[2.2.2]octane-2-carboxylic acid] | 19.2 nM | 
O=C(O)C1C2CCC(CC2)C1Nc1nc(-c2c[nH]c3ncncc23)ncc1F (stereo not shown) [Control compound A, reference compound] | > 100000 nM | 
